Test systems include DLD-1 colon; DMS 114 small cell lung; K-562 leukemia; LXFL 529 NSCLC; SK-MEL-2 melanoma; SK-MEL-28 melanoma; SNB-78 CNS; UACC-62 melanoma; TK-10 renal; HOP-18 NSCLC.
Common to all, as to test: NCI tumour cell line growth inhibition, 48 h

Drawing on PubChem BioAssay (NCI), this text covers TGI and GI50 for 16 molecules.

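Grown in 96-well plates, cells were treated for 48 hours with each compound at five concentrations. Insufficient inhibition: endpoint recorded as highest concentration tested. GI50 = concentration required for 50% inhibition of growth. Definition used: TGI = concentration required for complete inhibition of growth.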

Consider `CCCO/S(=N\S(=O)(=O)c1ccccc1)c1ccccc1[N+](=O)[O-]` (stereo not drawn), for which the TGI with DLD-1 colon, with DMS 114 small cell lung, with K-562 leukemia, in the assay with LXFL 529 NSCLC, in the assay with SK-MEL-2 melanoma and with SK-MEL-28 melanoma was over 100 µM throughout. For the same molecule, the TGI in the assay on SNB-78 CNS and in the assay with UACC-62 melanoma was over 100 µM each time.

For `Cc1cc(NS(=O)(=O)c2ccc(Nc3c4ccccc4nc4c(C(=O)N5CCN(CCO)CC5)ccc(Cl)c34)cc2)no1`, the TGI with DLD-1 colon, in the assay on DMS 114 small cell lung, in the assay on K-562 leukemia, with SK-MEL-2 melanoma, in the assay on SK-MEL-28 melanoma and in the assay on TK-10 renal was over 100 µM each time. Moreover, the TGI with UACC-62 melanoma was over 100 µM.

Turning to `S=c1[nH]c(=S)c2nnn(-c3ccccc3)c2[nH]1`, the TGI in the assay on DLD-1 colon, with DMS 114 small cell lung, with K-562 leukemia, in the assay on LXFL 529 NSCLC, in the assay on SK-MEL-2 melanoma and in the assay on SK-MEL-28 melanoma was over 100 µM each time. Besides, the TGI in the assay on TK-10 renal and in the assay with UACC-62 melanoma was over 100 µM each time.

For `COC(=O)/C=C1\CCC(C)O1` (stereo not drawn), the TGI in the assay with DLD-1 colon, with DMS 114 small cell lung, in the assay on K-562 leukemia, in the assay with LXFL 529 NSCLC, with SK-MEL-2 melanoma and in the assay with SNB-78 CNS was over 100 µM throughout. The TGI in the assay with TK-10 renal and with UACC-62 melanoma was over 100 µM in each case.

On to `Cc1cc(S(=O)(=O)O)c(NC(=O)C(=O)Cc2cc(=O)oc3cc(O)ccc23)cc1Cl`, for which the TGI in the assay on DLD-1 colon, in the assay on DMS 114 small cell lung, in the assay with HOP-18 NSCLC, in the assay on K-562 leukemia, in the assay with SK-MEL-2 melanoma and in the assay with SK-MEL-28 melanoma was over 100 µM in each case. In addition, the TGI with TK-10 renal and in the assay with UACC-62 melanoma was over 100 µM throughout.

On to `CC(=O)O[C@H]1CCC2[C@@H]3CCC4Nc5[nH]ncc5C[C@]4(C)C3CC[C@@]21C` (stereo partly drawn), for which the TGI in the assay with DMS 114 small cell lung, in the assay with HOP-18 NSCLC, in the assay on K-562 leukemia, in the assay with LXFL 529 NSCLC, with SK-MEL-2 melanoma and in the assay on TK-10 renal was over 100 µM throughout. In the assay on UACC-62 melanoma, this molecule showed a TGI of 60.3 µM.

Regarding `COC(=O)[C@H]1C=C[C@@H](C)n2c(=O)c3cc4ccccc4cc3c(=O)n21`, the TGI with DLD-1 colon, in the assay with DMS 114 small cell lung, in the assay on K-562 leukemia, with LXFL 529 NSCLC, in the assay on SK-MEL-2 melanoma and with SK-MEL-28 melanoma was over 100 µM throughout. Further, the TGI in the assay on SNB-78 CNS and in the assay with TK-10 renal was over 100 µM throughout.

With `O=[N+]([O-])c1ccc(N2N=C(c3ccc(NCc4nc5ccccc5[nH]4)cc3)CC2c2ccco2)cc1` (stereo not drawn), the TGI is over 100 µM in the assay on DLD-1 colon; 50.9 µM with DMS 114 small cell lung; over 100 µM with HOP-18 NSCLC; over 100 µM in the assay with K-562 leukemia; 38.5 µM in the assay with LXFL 529 NSCLC; over 100 µM in the assay with SK-MEL-28 melanoma. The TGI in the assay with TK-10 renal is over 100 µM; in the assay with UACC-62 melanoma it was 69.3 µM.

As to `CC(C)N(C(=O)C12C3C4C1(I)C1C2C3(I)C41C(=O)N(C(C)C)C(C)C)C(C)C` (stereo not drawn), the TGI in the assay on DLD-1 colon was over 100 µM; in the assay with HOP-18 NSCLC, over 100 µM; in the assay on K-562 leukemia, over 63.6 µM; in the assay with LXFL 529 NSCLC, over 100 µM; in the assay with SK-MEL-2 melanoma, over 100 µM; in the assay on SK-MEL-28 melanoma it was over 100 µM. Also, the TGI in the assay with TK-10 renal and in the assay on UACC-62 melanoma was over 100 µM each time.

With `N#Cc1c(N/N=C/c2ccc(Cl)cc2Cl)nc(N)nc1N1CCCC1`, the GI50 was 16700 nM in the assay on K-562 leukemia; 72.3 µM with SK-MEL-2 melanoma; 37.6 µM in the assay on SK-MEL-28 melanoma; 54.3 µM with TK-10 renal; 25.6 µM with UACC-62 melanoma. For the same molecule, the TGI is 49.5 µM with K-562 leukemia; over 100 µM with SK-MEL-2 melanoma; over 100 µM in the assay on SK-MEL-28 melanoma; over 100 µM in the assay on TK-10 renal; 84.2 µM in the assay with UACC-62 melanoma.

Consider `OCc1ccn2c1[C@@H](O)CC2`, for which the TGI in the assay on K-562 leukemia, in the assay on SK-MEL-2 melanoma, in the assay on SK-MEL-28 melanoma, in the assay on TK-10 renal and in the assay on UACC-62 melanoma was over 100 µM in each case.

Take `COc1ccc(-c2coc3c4c(ccc3c2=O)OCO4)cc1OC`: the TGI with K-562 leukemia, in the assay with SK-MEL-2 melanoma, with SK-MEL-28 melanoma, in the assay on TK-10 renal and in the assay with UACC-62 melanoma was over 100 µM throughout.

Turning to `O=S(=O)(c1ccccc1)C1CN2OC1(S(=O)(=O)c1ccccc1)CC2c1ccc(Br)cc1` (stereo not drawn), the TGI in the assay with DLD-1 colon, in the assay on DMS 114 small cell lung, in the assay on K-562 leukemia, in the assay with SK-MEL-2 melanoma, in the assay on SK-MEL-28 melanoma and in the assay with TK-10 renal was over 100 µM throughout. This molecule had a TGI with UACC-62 melanoma of over 100 µM.

Regarding `CCn1sc2ccccc2c1=O`, the TGI is over 100 µM with K-562 leukemia; 53.9 µM in the assay with SK-MEL-2 melanoma; 36 µM in the assay with SK-MEL-28 melanoma; 30.9 µM in the assay with TK-10 renal; 29.5 µM in the assay with UACC-62 melanoma.

Regarding `CCCOc1ccc2sc(NC(=O)OC)nc2c1`, the GI50 was 419 nM in the assay on K-562 leukemia; 2.05 µM in the assay on SK-MEL-2 melanoma; 18.6 µM in the assay on SK-MEL-28 melanoma; over 24.5 µM in the assay on TK-10 renal; 3.64 µM with UACC-62 melanoma. For the same molecule, the TGI with K-562 leukemia, in the assay with SK-MEL-2 melanoma, in the assay on SK-MEL-28 melanoma, in the assay with TK-10 renal and in the assay on UACC-62 melanoma was over 100 µM throughout.

Regarding `COc1c[c]([Hg][O]C(C)=O)c(OC)c(NC(=O)CC(C)=O)[c]1[Hg][O]C(C)=O`, the GI50 in the assay on DLD-1 colon is 2250 nM; in the assay on HOP-18 NSCLC it was 1960 nM; with K-562 leukemia, 1480 nM; in the assay on LXFL 529 NSCLC it was 1420 nM; in the assay on SK-MEL-2 melanoma it was 13.8 µM; in the assay on SK-MEL-28 melanoma, 1.83 µM. Besides, the values for the GI50 in the assay with TK-10 renal and in the assay with UACC-62 melanoma were 4.46 µM and 11.4 µM, respectively. Also, the TGI in the assay with DLD-1 colon was determined as 5.18 µM; in the assay on HOP-18 NSCLC, 4.62 µM; with K-562 leukemia, 5.53 µM; in the assay on LXFL 529 NSCLC it was 2.85 µM; in the assay with SK-MEL-2 melanoma, 28.2 µM; with SK-MEL-28 melanoma, 3.61 µM. Besides, the TGI amounted to 14 µM in the assay on TK-10 renal and 24.1 µM with UACC-62 melanoma.
